Measurements taken from publication PMC9080226 (RSC Advances, 2018).

Tests used:
COMT in HLS9 = target: T1, COMT in HLS9 (Homo sapiens, UniProt P21964); experiment: Kinetic analysis of 3-BTD methylation in human liver S9; type: in vitro ADME, humans; conditions: formation of 3-BTMD in HLS9; Vmax/Km
T1 sequence (P21964 51-271 limits assumed): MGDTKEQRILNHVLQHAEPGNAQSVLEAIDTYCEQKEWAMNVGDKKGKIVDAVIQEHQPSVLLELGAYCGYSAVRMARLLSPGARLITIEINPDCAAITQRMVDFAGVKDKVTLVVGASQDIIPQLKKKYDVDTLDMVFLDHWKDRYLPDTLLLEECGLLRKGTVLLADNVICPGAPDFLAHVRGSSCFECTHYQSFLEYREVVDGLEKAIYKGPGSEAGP

COMT in MLS9 [1] = target: T2, COMT in MLS9 (Mus musculus, UniProt O88587); experiment: Kinetic analysis of 3-BTD methylation in mouse liver S9; type: in vitro ADME, ICR/CD-1 mice; conditions: formation of 3-BTMD in MLS9; Vmax/Km
T2 sequence (O88587 44-265 limits assumed): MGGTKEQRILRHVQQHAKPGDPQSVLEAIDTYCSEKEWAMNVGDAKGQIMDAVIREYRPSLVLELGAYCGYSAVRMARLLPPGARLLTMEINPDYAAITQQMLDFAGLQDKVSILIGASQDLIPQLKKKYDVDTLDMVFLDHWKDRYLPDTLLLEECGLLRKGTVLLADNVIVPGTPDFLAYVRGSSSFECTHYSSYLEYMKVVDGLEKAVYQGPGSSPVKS

COMT in GpLS9 [2] = target: T3, COMT in GpLS9 (Cavia porcellus, UniProt A0A286XRD6); experiment: Kinetic analysis of 3-BTD methylation in guinea pig liver S9; type: in vitro ADME, Dunkin-Hartley guinea pigs; conditions: formation of 3-BTMD in GpLS9; Vmax/Km
T3 sequence (A0A286XRD6 1-270): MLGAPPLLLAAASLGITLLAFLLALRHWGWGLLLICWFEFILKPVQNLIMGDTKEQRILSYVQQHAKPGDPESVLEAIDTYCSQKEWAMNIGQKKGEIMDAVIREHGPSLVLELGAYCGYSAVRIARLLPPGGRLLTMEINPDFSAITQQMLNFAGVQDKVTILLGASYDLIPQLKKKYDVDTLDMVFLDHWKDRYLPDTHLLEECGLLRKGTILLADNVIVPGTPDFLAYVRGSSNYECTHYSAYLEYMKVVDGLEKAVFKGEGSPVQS

COMT in RLS9 = target: T4, COMT in RLS9 (Rattus norvegicus, UniProt P22734); experiment: Kinetic analysis of 3-BTD methylation in rat liver S9; type: in vitro ADME, Sprague-Dawley rats; conditions: formation of 3-BTMD in RLS9; Vmax/Km
T4 sequence (P22734 44-264 limits assumed): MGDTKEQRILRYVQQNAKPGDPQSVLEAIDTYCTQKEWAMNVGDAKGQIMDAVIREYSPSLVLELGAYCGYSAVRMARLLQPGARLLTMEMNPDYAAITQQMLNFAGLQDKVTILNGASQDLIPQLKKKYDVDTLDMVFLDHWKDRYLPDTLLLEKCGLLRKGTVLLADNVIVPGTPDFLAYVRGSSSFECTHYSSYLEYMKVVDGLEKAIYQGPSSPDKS

COMT in DLS9 [3] = target: T5, COMT in DLS9 (Canis lupus familiaris, UniProt Q60F99); experiment: Kinetic analysis of 3-BTD methylation in dog liver S9; type: in vitro ADME, beagle dogs; conditions: formation of 3-BTMD in DLS9; Vmax/Km
T5 sequence (Q60F99 1-221): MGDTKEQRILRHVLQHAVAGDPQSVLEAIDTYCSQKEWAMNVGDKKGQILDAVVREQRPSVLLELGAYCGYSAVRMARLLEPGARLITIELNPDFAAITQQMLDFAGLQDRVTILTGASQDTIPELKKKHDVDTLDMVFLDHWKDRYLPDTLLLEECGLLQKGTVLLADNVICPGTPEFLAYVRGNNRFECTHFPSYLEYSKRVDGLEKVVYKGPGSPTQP

COMT in RaLS9 [4] = target: T6, COMT in RaLS9 (Oryctolagus cuniculus, UniProt A0A5F9DQ59); type: in vitro ADME, New Zealand rabbits; conditions: formation of 3-BTMD in RaLS9; Vmax/Km
T6 sequence (A0A5F9DQ59 1-268): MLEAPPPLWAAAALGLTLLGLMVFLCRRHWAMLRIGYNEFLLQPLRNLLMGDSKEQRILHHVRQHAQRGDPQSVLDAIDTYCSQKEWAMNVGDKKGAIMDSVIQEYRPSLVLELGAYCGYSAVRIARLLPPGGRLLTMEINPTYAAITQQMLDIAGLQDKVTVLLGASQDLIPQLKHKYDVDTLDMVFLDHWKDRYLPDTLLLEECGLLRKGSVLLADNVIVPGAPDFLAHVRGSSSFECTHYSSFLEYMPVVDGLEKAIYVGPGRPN

COMT in GpLS9 [5] = target: T3, COMT in GpLS9; experiment: Chemical inhibition assay of 3-BTD methylation in guinea pig liver S9; type: biochemical, Dunkin-Hartley guinea pigs
COMT in DLS9 [6] = target: T5, COMT in DLS9; experiment: Chemical inhibition assay of 3-BTD methylation in dog liver S9; type: biochemical, beagle dogs
COMT in RaLS9 [7] = system: COMT in RaLS9
COMT in RaLS9 [8] = target: T6, COMT in RaLS9; experiment: biochemical
COMT in CyLS9 = target: T7, COMT in CyLS9 (Macaca fascicularis, UniProt A0A7N9CL08); experiment: Chemical inhibition assay of 3-BTD methylation in cynomolgus monkey liver S9
T7 sequence (A0A7N9CL08 1-274): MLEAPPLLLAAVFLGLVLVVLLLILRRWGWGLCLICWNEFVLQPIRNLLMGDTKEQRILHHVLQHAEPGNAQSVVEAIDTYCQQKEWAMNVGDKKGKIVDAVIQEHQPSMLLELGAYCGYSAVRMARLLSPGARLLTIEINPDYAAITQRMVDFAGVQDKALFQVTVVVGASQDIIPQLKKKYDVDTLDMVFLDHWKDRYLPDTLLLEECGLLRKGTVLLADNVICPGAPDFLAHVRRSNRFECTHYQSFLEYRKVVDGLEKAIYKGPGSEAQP

COMT in MLS9 [9] = target: T2, COMT in MLS9; experiment: biochemical
[10] = system: mammalian COMT in liver S9; conditions: tolcapone 1000 nM, liver S9 from all the test species

Clint (COMT in HLS9) [µL/min/mg]	Clint (COMT in MLS9 [1]) [µL/min/mg]	Clint (COMT in GpLS9 [2]) [µL/min/mg]	Clint (COMT in RLS9) [µL/min/mg]	Clint (COMT in DLS9 [3]) [µL/min/mg]	Clint (COMT in RaLS9 [4]) [µL/min/mg]	IC50 (COMT in GpLS9 [5]) [nM]	IC50 (COMT in DLS9 [6]) [nM]	inhibitory potency (IC50) in animal liver S9 versus HLS9 (COMT in RaLS9 [7]) [fold]	IC50 (COMT in RaLS9 [8]) [nM]	IC50 (COMT in CyLS9; CyLS9 0.2 mg ml^−1, 3-BTD (1 μM) 8-O-methylation as probe reaction, mean ± S.E.) [nM]	inhibitory potency (IC50) in animal liver S9 versus HLS9 (COMT in CyLS9; CyLS9 versus HLS9) [fold]	IC50 (COMT in MLS9 [9]) [nM]	Compound	inhibition of mammalian COMT-mediated 3-BTD methylation [10]
112	523	191	763	627	235	–	–	–	–	–	–	–	O=c1oc2c(O)c(O)ccc2cc1-c1nc2ccccc2s1 [3-BTD, 3-(benzo[d]thiazol-2-yl)-7,8-dihydroxy-2H-chromen-2-one]	–
–	–	–	–	–	–	108 ± 7.1	20.8 ± 2.7	6.9	117 ± 10.3	18.7 ± 3	1.1	29 ± 3.9	Cc1ccc(C(=O)c2cc(O)c(O)c([N+](=O)[O-])c2)cc1 [tolcapone]	strongly inhibit
